Here are results for 13 compounds from ChEMBL document CHEMBL5233247, “Recent advances in DNA gyrase-targeted antimicrobial agents” (Eur J Med Chem, 2020).

For one test, the target named is DNA gyrase (Escherichia coli, UniProt P0AES4+P0AES6). Kind of test: Inhibition of Escherichia coli DNA gyrase. It counts as protein-complex assay.
The subject of test [1] is Enterococcus faecalis. Description: Antimicrobial activity against Enterococcus faecalis. In kind it is functional.
Test [2] can be described thus: Inhibition of Salmonella typhimurium DNA gyrase. Also noted: species or system Salmonella enterica subsp. enterica serovar Typhimurium.
The next test concerns Salmonella typhimurium. Kind of test: Antibacterial activity against Salmonella typhimurium assessed as inhibition was bacterial growth by broth micro dilution method. In kind it is functional, Salmonella enterica subsp. enterica serovar Typhimurium. As to conditions: Salmonella enterica.
The next test concerns Salmonella enterica. Kind of test: Antibacterial activity against Salmonella enterica assessed as inhibition was bacterial growth by broth micro dilution method. It counts as functional.
Test [3] deals with Mycobacterium tuberculosis. Kind of test: Antitubercular activity against Mycobacterium tuberculosis H37Rv MTCC-200. In kind it is functional.
The target of test [4] is T1, DNA gyrase subunit A/DNA gyrase subunit B (Mycobacterium tuberculosis (strain ATCC 25618 / H37Rv), UniProt P9WG45+P9WG47). Kind of test: Inhibition of Mycobacterium tuberculosis (MTB) DNA gyrase using pBR322 DNA by supercoiling assay. In kind it is protein-complex assay.
T1 sequence (P9WG45 whole entry): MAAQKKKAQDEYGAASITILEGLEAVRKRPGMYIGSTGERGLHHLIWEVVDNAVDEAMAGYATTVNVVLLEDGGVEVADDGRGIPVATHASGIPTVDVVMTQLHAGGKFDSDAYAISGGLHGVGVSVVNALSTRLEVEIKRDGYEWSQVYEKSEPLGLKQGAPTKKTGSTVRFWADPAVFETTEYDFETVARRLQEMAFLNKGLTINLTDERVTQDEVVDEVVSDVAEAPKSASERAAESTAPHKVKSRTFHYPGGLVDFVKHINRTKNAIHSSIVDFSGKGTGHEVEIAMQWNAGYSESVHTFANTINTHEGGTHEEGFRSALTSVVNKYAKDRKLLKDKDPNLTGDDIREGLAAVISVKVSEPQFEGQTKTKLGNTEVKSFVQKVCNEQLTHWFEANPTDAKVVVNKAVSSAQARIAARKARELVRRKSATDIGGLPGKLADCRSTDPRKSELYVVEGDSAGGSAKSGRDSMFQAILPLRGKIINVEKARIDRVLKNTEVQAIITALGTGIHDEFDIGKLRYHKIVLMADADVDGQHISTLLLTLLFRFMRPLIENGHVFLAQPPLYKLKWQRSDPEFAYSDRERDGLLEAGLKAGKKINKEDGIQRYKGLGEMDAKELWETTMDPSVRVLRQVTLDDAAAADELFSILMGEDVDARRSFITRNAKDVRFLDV
T1 sequence (P9WG47 whole entry): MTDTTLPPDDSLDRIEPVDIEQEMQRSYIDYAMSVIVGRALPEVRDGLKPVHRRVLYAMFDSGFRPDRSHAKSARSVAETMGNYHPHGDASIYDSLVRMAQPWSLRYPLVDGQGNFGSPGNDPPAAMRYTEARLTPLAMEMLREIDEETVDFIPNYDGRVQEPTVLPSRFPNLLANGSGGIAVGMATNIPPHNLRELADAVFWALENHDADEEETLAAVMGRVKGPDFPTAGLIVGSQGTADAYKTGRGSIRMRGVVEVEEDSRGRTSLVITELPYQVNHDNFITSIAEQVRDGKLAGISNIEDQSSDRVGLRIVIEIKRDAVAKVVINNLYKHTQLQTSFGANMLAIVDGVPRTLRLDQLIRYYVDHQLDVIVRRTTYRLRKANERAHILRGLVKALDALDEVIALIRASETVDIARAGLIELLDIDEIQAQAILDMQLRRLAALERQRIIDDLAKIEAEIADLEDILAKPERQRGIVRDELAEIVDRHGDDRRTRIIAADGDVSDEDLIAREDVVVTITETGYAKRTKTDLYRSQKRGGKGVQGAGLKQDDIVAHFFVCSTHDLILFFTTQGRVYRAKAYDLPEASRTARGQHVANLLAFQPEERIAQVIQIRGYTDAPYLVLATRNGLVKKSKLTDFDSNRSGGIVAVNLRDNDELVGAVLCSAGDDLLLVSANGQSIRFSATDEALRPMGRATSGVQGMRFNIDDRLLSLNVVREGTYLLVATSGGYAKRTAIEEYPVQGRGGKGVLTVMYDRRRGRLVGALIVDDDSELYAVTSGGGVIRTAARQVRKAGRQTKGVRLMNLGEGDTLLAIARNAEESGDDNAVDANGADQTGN
Test [5] has as its system Mycobacterium tuberculosis. Description: Antimycobacterial activity against Mycobacterium tuberculosis incubated for 7 days by MABA assay. It counts as functional. The note with it: 168 h, time 7 day.
In test [6] the test system is Staphylococcus aureus. Kind of test: Antibacterial activity against methicillin-sensitive Staphylococcus aureus. It counts as functional, organism-based.
Test [7] has as its system Staphylococcus aureus. Description: Antibacterial activity against healthcare-acquired methicillin-resistant Staphylococcus aureus. It counts as functional.
In test [8] the test system is Staphylococcus aureus. Kind of test: Antibacterial activity against community-acquired methicillin-resistant Staphylococcus aureus. In kind it is functional.
In test [9] the test system is Enterococcus faecalis. Kind of test: Antibacterial activity against Enterococcus faecalis. In kind it is functional.
Another test has as its system Streptococcus pneumoniae. Kind of test: Antibacterial activity against Streptococcus pneumoniae. In kind it is functional.
A further test has as its system Acinetobacter baumannii. Description: Antibacterial activity against Acinetobacter baumannii. In kind it is functional.
Test [10] deals with T1, DNA gyrase subunit A/DNA gyrase subunit B. Kind of test: Inhibition of Mycobacterium tuberculosis DNA gyrase. In kind it is protein-complex assay.
For test [11], the system named is Staphylococcus aureus. Kind of test: Antimicrobial activity against Staphylococcus aureus ATCC 25923 incubated for 18 to 24 hrs by double micro-dilution method. The note with it: time 18-24 hrs. In kind it is functional.
Test [12] has as its system Enterococcus faecalis. Description: Antimicrobial activity against Enterococcus faecalis ATCC 29212 incubated for 18 to 24 hrs by double micro-dilution method. As to conditions: time 18-24 hrs. It counts as functional.
The test system of test [13] is Pseudomonas aeruginosa. Description: Antimicrobial activity against Pseudomonas aeruginosa ATCC 27853 incubated for 18 to 24 hrs by double micro-dilution method. In kind it is functional. The note with it: time 18-24 hrs.
The subject of test [14] is Klebsiella pneumoniae. Kind of test: Antimicrobial activity against Klebsiella pneumoniae ATCC 13883 incubated for 18 to 24 hrs by double micro-dilution method. It counts as functional. As to conditions: time 18-24 hrs.
In test [15] the test system is Acinetobacter haemolyticus. Description: Antimicrobial activity against Acinetobacter haemolyticus ATCC 19002 incubated for 18 to 24 hrs by double micro-dilution method. In kind it is functional. The note with it: time 18-24 hrs.
Test [16] has as its system Staphylococcus aureus. Description: Antibacterial activity against Staphylococcus aureus. It counts as functional.
The subject of a further test is Bacillus cereus. Description: Antibacterial activity against Bacillus cereus. It counts as functional.
The subject of test [17] is Escherichia coli. Kind of test: Antibacterial activity against Escherichia coli. It counts as functional.
The subject of test [18] is Klebsiella pneumoniae. Kind of test: Antibacterial activity against Klebsiella pneumoniae. In kind it is functional.
Test [19] relates to Pseudomonas aeruginosa. Description: Antibacterial activity against Pseudomonas aeruginosa. It counts as functional.
Test [20] concerns Mycolicibacterium smegmatis. Description: Antibacterial activity against Mycobacterium smegmatis. It counts as functional.
Another test deals with Bacillus subtilis. Description: Antibacterial activity against Bacillus subtilis DSM 10 by microdilution assay. In kind it is functional.
The subject of test [21] is Escherichia coli. Description: Antibacterial activity against Escherichia coli DSM 1116 by microdilution assay. In kind it is functional.
The subject of a further test is Mycolicibacterium phlei. Kind of test: Antibacterial activity against Mycobacterium phlei DSM 750 by microdilution assay. It counts as functional.
Test [22] relates to Escherichia coli. Description: Antibacterial activity against Escherichia coli assessed as zone of inhibition. In kind it is functional.
The subject of test [23] is Mycobacterium tuberculosis. Kind of test: Anti-tubercular activity against Mycobacterium tuberculosis H37Rv strain. In kind it is functional.
The next test concerns Listeria monocytogenes. Kind of test: Antimicrobial activity against Listeria monocytogenes assessed as inhibition of visible growth incubated for 24 hrs by agar-dilution method. In kind it is functional.
The test system of test [24] is Salmonella enterica subsp. enterica serovar Gallinarum. Description: Antimicrobial activity against Salmonella gallinarum assessed as inhibition of visible growth incubated for 24 hrs by agar-dilution method. It counts as functional.

In brackets after ≈: the same amount, converted by molar mass. Several values for one entry are separate records, joined by “and”; a condition that tells them apart may be missing. Equal values may be shown once.

With `CC(C)COc1cc(C(=O)NCC(=O)O)ccc1NC(=O)c1cc(Cl)c(Cl)[nH]1`, half-maximal inhibition on DNA gyrase (IC50) required 47 µM. This compound also gave an MIC with Enterococcus faecalis [1] of 12.5 µM (≈ 5.35 µg/mL).

As for `COc1c(N2CC3(CC3)[C@@](C)(N)C2)c(F)cc2c(=O)c(C(=O)O)cn([C@@H]3C[C@@H]3F)c12`, the IC50 in [2] was 0.32 µg/mL and 0.25 µg/mL. Also, the MIC in the test with Salmonella typhimurium was determined as 0.13 µg/mL (≈ 0.31 µM); in the test on Salmonella enterica it was 0.06 µg/mL (≈ 0.143 µM).

`COc1ccc(C(=O)Oc2ccc(/C=C3\C(=O)Nc4ccccc43)cc2)cc1OC` returned an MIC in [3] of 31 µg/mL (≈ 77.2 µM).

In turn, `O=c1nc(N2CCN(C(=S)Nc3ccccc3)CC2)sc2ccc([N+](=O)[O-])cc12` had an IC50 in test [4] of 0.51 µM. In test [5], this compound came in with an MIC of 4.41 µM (≈ 1.89 µg/mL).

In the case of `COc1c(N2CCCCC2)c(F)cc2c(=O)c(C(=O)N3CCSC3)cn(C3CC3)c12`, the MIC in the test with Staphylococcus aureus [6] was found to be 0.39 µg/mL (≈ 0.904 µM); in the test on Staphylococcus aureus [7] it was 0.62 µg/mL (≈ 1.44 µM); with Staphylococcus aureus [8] it was 25 µg/mL (≈ 57.9 µM); in the test on Enterococcus faecalis [9] it was 12.6 µg/mL (≈ 29.2 µM); in the test with Streptococcus pneumoniae it was 25 µg/mL (≈ 57.9 µM); in the test with Acinetobacter baumannii, 12.6 µg/mL (≈ 29.2 µM). The compound further yielded an IC50 in test [10] of 105 µM.

On DNA gyrase, `O=C(O)c1cn(C2CC2)c2cc(N3CCN(Cn4nc(CN5CCN(c6ccccc6)CC5)n(Cc5ccccc5)c4=O)CC3)c(F)cc2c1=O` yielded an IC50 of 0.75 µM. Further, the MIC in the test on Staphylococcus aureus [11] was determined as 8 µg/mL (≈ 11.5 µM); with Enterococcus faecalis [12], 8 µg/mL (≈ 11.5 µM); against Pseudomonas aeruginosa [13] it was 0.125 µg/mL (≈ 0.18 µM); in the test on Klebsiella pneumoniae [14], 0.125 µg/mL (≈ 0.18 µM); in [15] it was 0.125 µg/mL (≈ 0.18 µM).

In the case of `COc1c(N2CC3CCCCC3C2)c(F)cc2c(=O)c(C(=O)N3CCSC3)cn(C3CC3)c12` (stereo unspecified), the MIC is 0.79 µg/mL (≈ 1.68 µM) in the test on Staphylococcus aureus [6]; 0.79 µg/mL (≈ 1.68 µM) in the test with Staphylococcus aureus [7]; 25 µg/mL (≈ 53 µM) against Staphylococcus aureus [8]; 12.6 µg/mL (≈ 26.7 µM) in the test with Enterococcus faecalis [9]; 50 µg/mL (≈ 106 µM) against Streptococcus pneumoniae; 101 µg/mL (≈ 214 µM) against Acinetobacter baumannii. Also, the 50% inhibitory concentration (IC50) in test [10] was 105 µM.

Regarding `CCn1cc(-c2nnc(Nc3ccc(C)cc3)o2)c(=O)c2cc(Br)c(C)nc21`, the MIC (with Staphylococcus aureus [16]; in the test with Bacillus cereus; against Escherichia coli [17]; in the test with Klebsiella pneumoniae [18]; in the test with Pseudomonas aeruginosa [19]; in test [20]) was 5.5 µg/mL (≈ 12.5 µM) each time.

For the compound `Cc1ccc(NC(=S)N2CCN(c3nc(=O)c4cc([N+](=O)[O-])ccc4s3)CC2)cc1`, in test [4], it took 0.77 µM to reach half-maximal inhibition (IC50). Besides, the lowest concentration to inhibit growth in test [5] (MIC) was 1.82 µM (≈ 0.804 µg/mL).

With `COc1c(NC(=O)c2ccc(NC(=O)C(C)(C)NC(=O)c3ccc(NC(=O)/C(C)=C/c4ccc(O)cc4)cc3)c(OC)c2O)ccc(C(=O)O)c1O`, the minimal inhibitory concentration (MIC) with Bacillus subtilis was determined as 0.5 µM (≈ 0.356 µg/mL); with Escherichia coli [21], 0.25 µM (≈ 0.178 µg/mL); in the test on Escherichia coli [21] (Escherichia coli, DSM 1116, read-out: MIC) it was 0.5 µM (≈ 0.356 µg/mL); in the test with Mycolicibacterium phlei, 2 µM (≈ 1.43 µg/mL).

`CCn1cc(-c2nc(/N=C/c3ccc(Br)cc3)n[nH]2)c(=O)c2cc(Br)c(C)nc21` had an IC50 against DNA gyrase of 3.37 µM. Moreover, the “inhibition zone (IZ)” value in the test on Escherichia coli [22] is on record as 23 mm.

Regarding `CCn1cc(-c2nnc(Nc3ccc(OC)cc3)o2)c(=O)c2cc(Br)c(C)nc21`, at DNA gyrase, the IC50 is 8.53 µM. Besides, the MIC (in the test on Staphylococcus aureus [16]; in the test on Bacillus cereus; with Escherichia coli [17]; in the test with Klebsiella pneumoniae [18]; in the test on Pseudomonas aeruginosa [19]; in [20]) was 5.7 µg/mL (≈ 12.5 µM) each time.

Turning to `O=C(O)c1cn(C2CC2)c2cc(N3CCNCC3)c(F)cc2c1=O` [CIPROFLOXACIN], in test [2], the IC50 turned out to be 0.25 µg/mL (≈ 0.754 µM). Also, the MIC with Salmonella typhimurium was 0.016 µg/mL (≈ 0.0483 µM); in the test with Salmonella enterica, 0.016 µg/mL (≈ 0.0483 µM); in [23], 12.5 µM (≈ 4.14 µg/mL); against Staphylococcus aureus [6], 0.098 µg/mL (≈ 0.296 µM); against Staphylococcus aureus [7], 0.2 µg/mL (≈ 0.604 µM); against Staphylococcus aureus [8] it was 6.3 µg/mL (≈ 19 µM). In addition, the minimum inhibitory concentration (MIC) was 0.79 µg/mL (≈ 2.38 µM) against Enterococcus faecalis [9]; 0.39 µg/mL (≈ 1.18 µM) in the test on Streptococcus pneumoniae; 0.78 µg/mL (≈ 2.35 µM) against Acinetobacter baumannii; 0.125 µg/mL (≈ 0.377 µM) with Listeria monocytogenes; 0.125 µg/mL (≈ 0.377 µM) in test [24].
